We go through 21 compounds from patent US10188634B2, “3-(3H-imidazo[4,5-C]pyridin-2-yl)-1 H-pyrazolo[4,3-B]pyridines and therapeutic uses thereof” (Samumed, LLC, priority 2015, dated 2019).

For experiment [1], the system named is Wnt activity (Sp5-Luc reporter, human Sp5 promoter with eight TCF/LEF binding sites) in SW480 colon carcinoma cells. In words: Screening assay for Wnt activity: Sp5-Luc reporter gene assay in SW480 cells. To be noted: 10-point dose-response starting from 10 μM, overnight incubation. It counts as cell-based. An outline of the steps: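 SW480 cells stably carrying Sp5-Luc reporter (eight TCF/LEF sites) plated at 4,000/well in 1% FBS medium with compound (10-point 1:3 series from 10 μM, 0.1% DMSO) overnight at 37 °C. BrightGlo luminescence normalized to DMSO; EC50 by four-parameter fit, else % inhibition at 10 μM.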
Background: A reporter such as luciferase makes a cellular process visible.

Experiment [2] relates to primary human mesenchymal stem cells (hMSCs). In words: Induction of chondrogenesis in primary human mesenchymal stem cells (hMSCs), nodule imaging with Rhodamine B / Nile Red. The class given is cell-based. The following applies: for Emax: hMSCs chondrogenesis, TGF-β3 (10 ng/mL) as positive control, read-out: Max. Activity as % TGF-β3 activity; for EC50: hMSCs, concentration required to induce 50% levels of chondrogenesis vs TGF-β3 positive control, read-out: Conc (nM) of 50% TGF-β3 activity. The procedure, abridged:
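Passage 3-6 hMSCs cultured 6 days at 37° C in incomplete chondrogenic induction medium with compound (2700-10 nM, 96-well; 5000-2.2 nM, 384-well; 0.03% DMSO), TGF-β3 10 ng/mL as positive control. Fixed nodules stained with Rhodamine B/Nile Red, imaged at 531/625 nm; nodule area normalized to DMSO wells for EC50, maximum activity and dose at maximum.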

As to `FC1(F)CCN(Cc2cncc(-c3ccc4[nH]nc(-c5nc6c(-c7ccsc7)cncc6[nH]5)c4n3)c2)C1` [Compound 278, 5-(5-((3,3-difluoropyrrolidin-1-yl)methyl)pyridin-3-yl)-3-(7-(thiophen-3-yl)-3H-imidazo[4,5-c]pyridin-2-yl)-1H-pyrazolo[4,3-b]pyridine], the figures for the EC50 in experiment [1] and in experiment [2] were 1040 nM and 10 nM, respectively. Further, the Emax in experiment [2] is 67%.
The matching figures for `Cc1ccc(-c2cncc3[nH]c(-c4n[nH]c5ccc(-c6cncc(N)c6)nc45)nc23)s1` [Compound 367, 5-(3-(7-(5-Methylthiophen-2-yl)-3H-imidazo[4,5-c]pyridin-2-yl)-1H-pyrazolo[4,3-b]pyridin-5-yl)pyridin-3-amine]: 41 nM, 30 nM and 79%.
The matching figures for `CC(C)Nc1cncc(-c2ccc3[nH]nc(-c4nc5c(-c6ccoc6)cncc5[nH]4)c3n2)c1` [Compound 292, 5-(3-(7-(Furan-3-yl)-3H-imidazo[4,5-c]pyridin-2-yl)-1H-pyrazolo[4,3-b]pyridin-5-yl)-N-isopropylpyridin-3-amine]: 597 nM, 30 nM and 75%.
In experiment [1], `Fc1ccc(-c2cncc3[nH]c(-c4n[nH]c5ccc(-c6cncc(CN7CCCC7)c6)nc45)nc23)cc1` [Compound 42, 3-(7-(4-Fluorophenyl)-3H-imidazo[4,5-c]pyrid-2-yl)-5-(5-(pyrrolidin-1-ylmethyl)pyridin-3-yl)-1H-pyrazolo[4,3-b]pyridine] came in with an EC50 of 3350 nM. For the same compound, in experiment [2], the Emax was 15%.
Taken in the same sequence, the figures for `Cc1ccncc1-c1ccc2[nH]nc(-c3nc4c(-c5ccsc5)cncc4[nH]3)c2n1` [Compound 257, 5-(4-Methylpyridin-3-yl)-3-(7-(thiophen-3-yl)-3H-imidazo[4,5-c]pyridin-2-yl)-1H-pyrazolo[4,3-b]pyridine] were 641 nM and 24%.
Taken in the same sequence, the figures for `Cc1ccncc1-c1ccc2[nH]nc(-c3nc4c(-c5cc(F)cc(CNS(C)(=O)=O)c5)cncc4[nH]3)c2n1` [Compound 453, N-(3-Fluoro-5-(2-(5-(4-methylpyridin-3-yl)-1H-pyrazolo[4,3-b]pyridin-3-yl)-3H-imidazo[4,5-c]pyridin-7-yl)benzyl)methanesulfonamide] were 3210 nM and 35%.
With `CN(C)CCOc1cncc(-c2ccc3[nH]nc(-c4nc5c(-c6cccc(F)c6)cncc5[nH]4)c3n2)c1` [Compound 487, 2-((5-(3-(7-(3-Fluorophenyl)-3H-imidazo[4,5-c]pyridin-2-yl)-1H-pyrazolo[4,3-b]pyridin-5-yl)pyridin-3-yl)oxy)-N,N-dimethylethan-1-amine], the EC50 in experiment [1] stood at 3440 nM. Besides, in experiment [2], the Emax stood at 55% and the EC50 worked out at 2 nM.
`Clc1ccc(-c2cncc3[nH]c(-c4n[nH]c5ccc(-c6cncc(CN7CCCC7)c6)nc45)nc23)s1` [Compound 1004, 3-(7-(5-Chlorothiophen-2-yl)-3H-imidazo[4,5-c]pyridin-2-yl)-5-(5-(pyrrolidin-1-ylmethyl)pyridin-3-yl)-1H-pyrazolo[4,3-b]pyridine] yielded an EC50 in experiment [1] of 3790 nM. In experiment [2], the Emax is 62% and the EC50 came out at 10 nM.
The matching figures for `COc1cncc(-c2ccc3[nH]nc(-c4nc5c(-c6cccc(F)c6)cncc5[nH]4)c3n2)c1` [Compound 488, 3-(7-(3-Fluorophenyl)-3H-imidazo[4,5-c]pyridin-2-yl)-5-(5-methoxylpyridin-3-yl)-1H-pyrazolo[4,3-b]pyridine]: 24 nM, 56% and 21 nM.
Taken in the same sequence, the figures for `CCCC(=O)Nc1cncc(-c2ccc3[nH]nc(-c4nc5c(-c6ccsc6)cncc5[nH]4)c3n2)c1` [Compound 269, N-(5-(3-(7-(Thiophen-3-yl)-3H-imidazo[4,5-c]pyridin-2-yl)-1H-pyrazolo[4,3-b]pyridin-5-yl)pyridin-3-yl)butyramide] were 3720 nM, 58% and 21 nM.
The matching figures for `CC(C)Nc1cncc(-c2ccc3[nH]nc(-c4nc5c(-c6cc(F)cc(NCCN(C)C)c6)cncc5[nH]4)c3n2)c1` [Compound 432, N^1-(3-Fluoro-5-(2-(5-(5-(isopropylamino)pyridin-3-yl)-1H-pyrazolo[4,3-b]pyridin-3-yl)-3H-imidazo[4,5-c]pyridin-7-yl)phenyl)-N^2,N^2-dimethylethane-1,2-diamine]: 1660 nM, 97% and 300 nM.
For the compound `Fc1cccc(-c2cncc3[nH]c(-c4n[nH]c5ccc(-c6cncc(CN7CCC(F)(F)C7)c6)nc45)nc23)c1` [Compound 26, 5-(5-((3,3-Difluoropyrrolidin-1-yl)methyl)pyridin-3-yl)-3-(7-(3-fluorophenyl)-3H-imidazo[4,5-c]pyridin-2-yl)-1H-pyrazolo[4,3-b]pyridine], the EC50 in experiment [1] turned out to be 1090 nM. For the same compound, in experiment [2], the Emax is 47%.
`CN(C)c1cncc(-c2ccc3[nH]nc(-c4nc5c(-c6cccc(F)c6)cncc5[nH]4)c3n2)c1` [Compound 7, 5-(3-(7-(3-Fluorophenyl)-3H-imidazo[4,5-c]pyridin-2-yl)-1H-pyrazolo[4,3-b]pyridin-5-yl)-N,N-dimethylpyridin-3-amine] showed an EC50 in experiment [1] of 638 nM. For the same compound, in experiment [2], the Emax came out at 154% and the EC50 was 10 nM.
Compound `CC(C)(C)C(=O)Nc1cncc(-c2ccc3[nH]nc(-c4nc5c(-c6ccc(F)cc6)cncc5[nH]4)c3n2)c1` [Compound 36, N-(5-(3-(7-(4-Fluorophenyl)-3H-imidazo[4,5-c]pyridin-2-yl)-1H-pyrazolo[4,3-b]pyridin-5-yl)pyridin-3-yl)pivalamide] returned an EC50 in experiment [1] of 2730 nM. In experiment [2], the Emax was 42%.
Regarding `CN(C)c1cncc(-c2ccc3[nH]nc(-c4nc5c(N6CCCCC6)cncc5[nH]4)c3n2)c1` [Compound 175, N,N-dimethyl-5-(3-(7-(piperidin-1-yl)-3H-imidazo[4,5-c]pyridin-2-yl)-1H-pyrazolo[4,3-b]pyridin-5-yl)pyridin-3-amine], the EC50 in experiment [1] turned out to be 3970 nM. For the same compound, in experiment [2], the Emax was determined as 67% and the EC50 amounted to 100 nM.
Regarding `O=C(Nc1cncc(-c2ccc3[nH]nc(-c4nc5c(-c6ccc(Cl)s6)cncc5[nH]4)c3n2)c1)C1CCC1` [Compound 1011, N-(5-(3-(7-(5-Chlorothiophen-2-yl)-3H-imidazo[4,5-c]pyridin-2-yl)-1H-pyrazolo[4,3-b]pyridin-5-yl)pyridin-3-yl)cyclobutanecarboxamide], the EC50 in experiment [1] is 800 nM. For the same compound, in experiment [2], the Emax is 68% and the EC50 was determined as 30 nM.
On to `CC(C)Nc1cncc(-c2ccc3[nH]nc(-c4nc5c(-c6cccnc6)cncc5[nH]4)c3n2)c1` [Compound 96, N-Isopropyl-5-(3-(7-(pyridin-3-yl)-3H-imidazo[4,5-c]pyridin-2-yl)-1H-pyrazolo[4,3-b]pyridin-5-yl)pyridin-3-amine], for which, in experiment [1], the EC50 was 1350 nM. In experiment [2], the Emax was found to be 65% and the EC50 was found to be 30 nM.
`CC(C)CC(=O)Nc1cncc(-c2ccc3[nH]nc(-c4nc5c(-c6ccc(Cl)s6)cncc5[nH]4)c3n2)c1` [Compound 992, N-(5-(3-(7-(5-Chlorothiophen-2-yl)-3H-imidazo[4,5-c]pyridin-2-yl)-1H-pyrazolo[4,3-b]pyridin-5-yl)pyridin-3-yl)-3-methylbutanamide] displayed an EC50 in experiment [1] of 4080 nM. Moreover, in experiment [2], the Emax turned out to be 61% and the EC50 was 10 nM.
Regarding `CN(C)Cc1cncc(-c2ccc3[nH]nc(-c4nc5c(-c6cccc(F)c6)cncc5[nH]4)c3n2)c1` [Compound 13, 1-(5-(3-(7-(3-Fluorophenyl)-3H-imidazo[4,5-c]pyridin-2-yl)-1H-pyrazolo[4,3-b]pyridin-5-yl)pyridin-3-yl)-N,N-dimethylmethanamine], the EC50 in experiment [1] worked out at 1100 nM. Further, the Emax in experiment [2] was 17%.
Consider `CC(C)(C)C(=O)Nc1cncc(-c2ccc3[nH]nc(-c4nc5c(-c6ccc(Cl)s6)cncc5[nH]4)c3n2)c1` [Compound 998, N-(5-(3-(7-(5-Chlorothiophen-2-yl)-3H-imidazo[4,5-c]pyridin-2-yl)-1H-pyrazolo[4,3-b]pyridin-5-yl)pyridin-3-yl)pivalamide], for which the EC50 came to 551 nM in experiment [1] and 10 nM in experiment [2]. Moreover, the Emax in experiment [2] came out at 85%.
Taken in the same sequence, the figures for `CN(C)c1cncc(-c2ccc3[nH]nc(-c4nc5c(-c6cccs6)cncc5[nH]4)c3n2)c1` [Compound 315, N,N-Dimethyl-5-(3-(7-(thiophen-2-yl)-3H-imidazo[4,5-c]pyridin-2-yl)-1H-pyrazolo[4,3-b]pyridin-5-yl)pyridin-3-amine] were 710 nM, 10 nM and 66%.
